Target: T1, Mdm4 (Homo sapiens, UniProt O15151)
T1 sequence (O15151 1-490): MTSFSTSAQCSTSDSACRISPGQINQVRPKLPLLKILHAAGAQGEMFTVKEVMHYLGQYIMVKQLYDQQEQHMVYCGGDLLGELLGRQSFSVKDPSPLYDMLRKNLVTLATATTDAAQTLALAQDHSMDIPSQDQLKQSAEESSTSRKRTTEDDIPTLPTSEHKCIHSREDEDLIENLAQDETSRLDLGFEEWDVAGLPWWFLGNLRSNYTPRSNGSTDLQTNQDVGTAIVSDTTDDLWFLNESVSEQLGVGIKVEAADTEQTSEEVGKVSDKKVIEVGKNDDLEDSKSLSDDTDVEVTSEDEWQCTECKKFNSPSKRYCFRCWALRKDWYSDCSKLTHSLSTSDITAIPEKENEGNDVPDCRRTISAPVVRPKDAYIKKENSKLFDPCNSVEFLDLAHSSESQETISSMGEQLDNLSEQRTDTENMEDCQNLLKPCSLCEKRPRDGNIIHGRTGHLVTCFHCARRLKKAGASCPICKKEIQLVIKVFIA
Experiment: fluorescence polarization assay, p53-Mdm4
Type: binding
Conditions: FP, resynthesized and purified by flash chromatography

Ki: 5.5 µM
Compound: O=C(CN(Cc1ccc(Cl)cc1)C(=O)c1cc2ccccc2[nH]1)NC1CCCCC1 [Compound B1, N-(4-Chlorobenzyl)-N-(2-(cyclohexylamino)-2-oxoethyl)-1H-indole-2-carboxamide]
